Article PMC9127807, “Echinocandins Localized to the Target-Harboring Cell Surface Are Not Degraded but Those Entering the Vacuole Are” (ACS Chemical Biology, 2022)
In brackets after ≈: the same amount, converted by molar mass. Several values for one entry are separate records, joined by “and”; a condition that tells them apart may be missing. Equal entries are not always repeated. Where two headings read alike, the source gives them in different places. Starred links: 1 amine or outer side, 2 acyl side, 3 side chain; linkers in the order of their positions; H or OH if unused. Positions of bridges follow the written chain, without caps; N, C: chain ends. Non-standard residues stand in square brackets, D forms with d. Residues, ends and D or L forms follow the SMILES beside them. *: point of attachment. X1 = O=C([C@@H](N[*:1])[C@H](O)[C@@H](O)c1ccc(OCc2cn(CCCNc3ccc([N+](=O)[O-])c4nonc34)nn2)cc1)[*:2]; Orn(4R-OH,5R-OCH2CH2NMe3+) = C[N+](C)(C)CCO[C@@H](N[*:3])[C@H](O)C[C@H](N[*:1])C(=O)[*:2]; pTerphenylCO(4''-OnC5H11) = CCCCCOc1ccc(-c2ccc(-c3ccc(C(=O)*)cc3)cc2)cc1; Orn(4R-OH,5R-OH) = O=C([C@H](C[C@@H](O)[C@@H](O)N[*:3])N[*:1])[*:2]; hTyr(3S-OH,4S-OH) = N[C@H](C(=O)O)[C@H](O)[C@@H](O)c1ccc(O)cc1; Pro(3S-OH,4S-Me) = C[C@H]1CN[C@H](C(=O)O)[C@H]1O; Hyp = O=C(O)[C@@H]1C[C@@H](O)CN1

Key:
C. albicans ATCC 10231 = conditions: strain D, echinocandin-susceptible; YPAD broth, 24 h, 30 °C, OD600 reduced by ≥75%
Protocol: (§1) Candida strains were streaked from glycerol stock onto YPAD agar plates and grown for 24 h at 30 °C. Colonies were suspended in 1 mL of PBS and diluted to an optical density of 2 × 10^–4 at 600 nm (OD600) in flat-bottom 96-well microplates (Corning) with YPAD broth containing dilutions of each tested compound at concentrations ranging from 64 to 0.008 μg/mL in twofold dilutions. Control wells with yeast cells but no drug and blank wells that contained only YPAD were prepared. MIC values (Table S2) were determined after 24 h at 30 °C by measuring the OD600 using a plate reader (Infinite M200 PRO, Tecan). MIC values were defined as the point at which the OD600 was reduced by ≥75% compared to the no-drug wells. Each concentration was tested in triplicate, and the results were confirmed by two independent sets of experiments.

C. albicans ATCC 24433 = conditions: strain C, echinocandin-susceptible; YPAD broth, 24 h, 30 °C, OD600 reduced by ≥75%
Protocol: as §1

C. albicans ATCC 90028 = conditions: strain E, echinocandin-susceptible; YPAD broth, 24 h, 30 °C, OD600 reduced by ≥75%
Protocol: as §1

[1] = system: C. albicans DPL1016 (DP-A15-10); conditions: strain F, echinocandin resistant FKS mutation; YPAD broth, 24 h, 30 °C, OD600 reduced by ≥75%
Protocol: as §1

C. albicans SC5314 = conditions: strain A, echinocandin-susceptible; YPAD broth, 24 h, 30 °C, OD600 reduced by ≥75%; triplicate, two independent experiments
Protocol: as §1

[2] = system: C. albicans T-2068 (DP-C42); conditions: strain G, echinocandin resistant FKS mutation; YPAD broth, 24 h, 30 °C, OD600 reduced by ≥75%
Protocol: as §1

C. glabrata ATCC 2001 = conditions: strain I, echinocandin-susceptible; YPAD broth, 24 h, 30 °C, OD600 reduced by ≥75%
Protocol: as §1

C. glabrata ATCC 66032 = conditions: strain J, echinocandin-susceptible; YPAD broth, 24 h, 30 °C, OD600 reduced by ≥75%
Protocol: as §1

C. glabrata ATCC 90030 = conditions: strain K, echinocandin-susceptible; YPAD broth, 24 h, 30 °C, OD600 reduced by ≥75%
Protocol: as §1

C. glabrata EF1620 = conditions: strain H, echinocandin-susceptible; YPAD broth, 24 h, 30 °C, OD600 reduced by ≥75%
Protocol: as §1

C. glabrata T-192 (1775) = conditions: strain L, echinocandin-susceptible; YPAD broth, 24 h, 30 °C, OD600 reduced by ≥75%
Protocol: as §1

C. glabrata TGL00275 = conditions: strain M, echinocandin resistant FKS mutation; YPAD broth, 24 h, 30 °C, OD600 reduced by ≥75%
Protocol: as §1

C. glabrata TGL00277 = conditions: strain N, echinocandin resistant FKS mutation; YPAD broth, 24 h, 30 °C, OD600 reduced by ≥75%
Protocol: as §1

C. albicans SN152 = experiment: MIC broth double-dilution assay; format: cell-based, Candida albicans; conditions: strain B, echinocandin-susceptible; YPAD broth, 24 h, 30 °C, OD600 reduced by ≥75%
Protocol: as §1, with “Colonies” for “Candida strains were streaked from glycerol stock onto YPAD agar plates and grown for 24 h at 30 °C. Colonies”

[3] = incubation in human plasma for 44 h at 37 °C; cited from earlier work
Source text: Intending to develop echinocandins with improved chemical stability under physiological conditions, Cidara Therapeutics developed rezafungin (RZF), a novel ANF derivative with distinctive pharmacokinetic and pharmacodynamic profiles, which entered phase III trials in October 2018 (Figure 1).[18]−[21] […] Instead of the daily intravenous administration regime used for the other three echinocandins, RZF can be administered intravenous ...

C. albicans SC5314 cells = conditions: for percentage degraded: 24 h, 10 μM, 30 °C, RP-HPLC of lysates
Protocol: C. albicans SC5314 cells were streaked from glycerol stocks onto YPAD agar plates and grown for 24 h at 30 °C. Colonies were grown in tubes in 3 mL of YPAD broth for 24 h at 30 °C with shaking. Cultures were diluted 1:50 and incubated in 5 mL of YPAD broth for 3 h at 30 °C with shaking until log-phase growth was observed. Cultures were then centrifuged (4000 rpm, 3 min), washed with PBS buffer, and resuspended in 1 mL of PBS buffer or YPAD. Cells were incubated with TMR-based probes (1 or 3) at a final concentration of 10 μM at 30 °C with shaking in the dark for 24 h. After washing three times with PBS, cells were resuspended in 75 μL of TNE buffer (10 mM Tris, 100 mM NaCl, and 1 mM ethylenediaminetetraacetic acid, pH 8.0) in a 1.5 mL Eppendorf tube, and 0.5 mm diameter beads were added to the yeast solution. The mixture was agitated on a vortex at maximum speed for 5 min. Next, 200 μL of 2% Triton X-100 in TNE buffer (v/v) was added to the agitated solution, and then the mixture was sonicated for 15 min. To clarify the yeast lysate, the mixture was centrifuged twice (16 000g, 20 min), and the supernatant was removed and filtered using a 0.22 μm syringe filter. The samples were analyzed using analytical reverse-phase HPLC at a 550 nm wavelength. HPLC conditions: mobile phase: acetonitrile in H2O (containing 0.1% trifluoroacetic acid (v/v)), gradient from 10 to 90%; flow rate: 1 mL/min; absorbance wavelength: 550 nm. Each sample was tested in two independent sets of experiments. The percentages of intact echinocandin were determined using the area calculation function available in the Hitachi Primaide Software and are presented as means (two replicates) ± standard deviation (SD).

[4] = system: C. albicans SC5314 cell lysate; conditions: incubated with lysate of C. albicans SC5314 in buffer for 24 h; RP-HPLC
Protocol: C. albicans SC5314 cells were streaked from glycerol stocks onto YPAD agar plates and grown for 24 h at 30 °C. Colonies were grown in tubes in 3 mL of YPAD broth for 24 h at 30 °C with shaking. Cultures were diluted 1:50 and incubated in 5 mL of YPAD broth for 3 h at 30 °C with shaking until log-phase growth was observed. Cultures were then centrifuged (4000 rpm, 3 min), washed with PBS buffer, and resuspended in 1 mL of PBS buffer or YPAD. Cells were incubated with TMR-based probes (1 or 3) at a final concentration of 10 μM at 30 °C with shaking in the dark for 24 h. After washing three times with PBS, cells were resuspended in 75 μL of TNE buffer (10 mM Tris, 100 mM NaCl, and 1 mM ethylenediaminetetraacetic acid, pH 8.0) in a 1.5 mL Eppendorf tube, and 0.5 mm diameter beads were added to the yeast solution. The mixture was agitated on a vortex at maximum speed for 5 min. […] The samples were analyzed using analytical reverse-phase HPLC at a 550 nm wavelength. HPLC conditions: mobile phase: acetonitrile in H2O (containing 0.1% trifluoroacetic acid (v/v)), gradient from 10 to 90%; flow rate: 1 mL/min; absorbance wavelength: 550 nm. […] The percentages of intact echinocandin were determined using the area calculation function available in the Hitachi Primaide Software and are presented as means (two replicates) ± standard deviation (SD).

Row | Compound | MIC (C. albicans ATCC 10231) [µg/mL] | MIC (C. albicans ATCC 24433) [µg/mL] | MIC (C. albicans ATCC 90028) [µg/mL] | MIC [1] [µg/mL] | MIC (C. albicans SC5314) [µg/mL] | MIC [2] [µg/mL] | MIC (C. glabrata ATCC 2001) [µg/mL] | MIC (C. glabrata ATCC 66032) [µg/mL] | MIC (C. glabrata ATCC 90030) [µg/mL] | MIC (C. glabrata EF1620) [µg/mL] | MIC (C. glabrata T-192 (1775)) [µg/mL] | MIC (C. glabrata TGL00275) [µg/mL] | MIC (C. glabrata TGL00277) [µg/mL] | MIC (C. albicans SN152) [µg/mL] | percent of intact drug [3] [%] | percentage degraded (C. albicans SC5314 cells; cells in nutrient-free PBS buffer) | percentage degraded (C. albicans SC5314 cells; cells in nutrient-rich YPAD medium) | percentage intact (C. albicans SC5314 cells; control: 5 min incubation with the cells in PBS, RP-HPLC) [%] | percentage intact [4] | decomposition (C. albicans SC5314 cells; incubated with cells or lysates of C. albicans SC5314, 24 h, regardless of the media used (PBS, YPAD))
1 | CCCCCOc1ccc(-c2ccc(-c3ccc(C(=O)N[C@H]4C[C@@H](O)[C@@H](O)NC(=O)[C@@H]5[C@@H](O)[C@@H](C)CN5C(=O)[C@H]([C@@H](C)O)NC(=O)[C@H]([C@H](O)[C@@H](O)c5ccc(O)cc5)NC(=O)[C@@H]5C[C@@H](O)CN5C(=O)[C@H]([C@@H](C)O)NC4=O)cc3)cc2)cc1 [ANF, anidulafungin, reference compound] ({pTerphenylCO(4''-OnC5H11)}-[Orn(4R-OH,5R-OH)]T[Hyp][hTyr(3S-OH,4S-OH)]T[Pro(3S-OH,4S-Me)]; lactam 1-C) | 0.016 (≈ 0.014 µM) | 0.008 (≈ 0.00702 µM) | 0.016 (≈ 0.014 µM) | 4 (≈ 3.51 µM) | 0.008 (≈ 0.00702 µM) | 4 (≈ 3.51 µM) | 0.008 (≈ 0.00702 µM) | 0.016 (≈ 0.014 µM) | 0.016 (≈ 0.014 µM) | 0.008 (≈ 0.00702 µM) | 0.008 (≈ 0.00702 µM) | 4 (≈ 3.51 µM) | > 64 | 0.008 (≈ 0.00702 µM) | 7 |  |  |  |  | 
2 | CC[C@H](C)C[C@H](C)CCCCCCCCC(=O)N[C@H]1C[C@@H](O)[C@@H](NCCN)NC(=O)[C@@H]2[C@@H](O)CCN2C(=O)[C@H]([C@H](O)CCN)NC(=O)[C@H]([C@H](O)[C@@H](O)c2ccc(O)cc2)NC(=O)[C@@H]2C[C@@H](O)CN2C(=O)[C@H]([C@@H](C)O)NC1=O [CSF, caspofungin, reference compound] | 0.063 (≈ 0.0576 µM) | 0.031 (≈ 0.0284 µM) | 0.063 (≈ 0.0576 µM) | 32 (≈ 29.3 µM) | 0.031 (≈ 0.0284 µM) | 16 (≈ 14.6 µM) | 0.063 (≈ 0.0576 µM) | 0.063 (≈ 0.0576 µM) | 0.125 (≈ 0.114 µM) | 0.031 (≈ 0.0284 µM) | 0.016 (≈ 0.0146 µM) | 16 (≈ 14.6 µM) | > 64 | 0.031 (≈ 0.0284 µM) |  |  |  |  |  | 
3 | CC[C@H](C)C[C@H](C)CCCCCCCCC(=O)N[C@H]1C[C@@H](O)[C@@H](NCCN)NC(=O)[C@@H]2[C@@H](O)CCN2C(=O)[C@H]([C@H](O)CCN)NC(=O)[C@H]([C@H](O)[C@@H](O)c2ccc(OCc3cn(CCCNC(=O)c4ccc(-c5c6ccc(=[N+](C)C)cc-6oc6cc(N(C)C)ccc56)c(C(=O)[O-])c4)nn3)cc2)NC(=O)[C@@H]2C[C@@H](O)CN2C(=O)[C@H]([C@@H](C)O)NC1=O [Probe 1] |  |  |  |  |  |  |  |  |  |  |  |  |  |  |  | approximately 70% | approximately 40% | ~80 | 78% and ~80% | 
4 | CC[C@H](C)C[C@H](C)CCCCCCCCC(=O)N[C@H]1C[C@@H](O)[C@@H](NCCN)NC(=O)[C@@H]2[C@@H](O)CCN2C(=O)[C@H]([C@H](O)CCN)NC(=O)[C@H]([C@H](O)[C@@H](O)c2ccc(OCc3cn(CCCNc4ccc([N+](=O)[O-])c5nonc45)nn3)cc2)NC(=O)[C@@H]2C[C@@H](O)CN2C(=O)[C@H]([C@@H](C)O)NC1=O [Probe 2] | 2 (≈ 1.43 µM) | 2 (≈ 1.43 µM) | 2 (≈ 1.43 µM) | > 64 | 1 (≈ 0.717 µM) | 64 (≈ 45.9 µM) | 2 (≈ 1.43 µM) | 4 (≈ 2.87 µM) | 4 (≈ 2.87 µM) | 4 (≈ 2.87 µM) | 2 (≈ 1.43 µM) | > 64 | > 64 | 1 (≈ 0.717 µM) |  |  |  |  |  | 
5 | CCCCCOc1ccc(-c2ccc(-c3ccc(C(=O)N[C@H]4C[C@@H](O)[C@@H](OCCc5cn(CCCNC(=O)c6ccc(-c7c8ccc(=[N+](C)C)cc-8oc8cc(N(C)C)ccc78)c(C(=O)[O-])c6)nn5)NC(=O)[C@@H]5[C@@H](O)[C@@H](C)CN5C(=O)[C@H]([C@@H](C)O)NC(=O)[C@H]([C@H](O)[C@@H](O)c5ccc(O)cc5)NC(=O)[C@@H]5C[C@@H](O)CN5C(=O)[C@H]([C@@H](C)O)NC4=O)cc3)cc2)cc1 [Probe 3] |  |  |  |  |  |  |  |  |  |  |  |  |  |  |  |  |  |  |  | no significant decomposition
6 | CCCCCOc1ccc(-c2ccc(-c3ccc(C(=O)N[C@H]4C[C@@H](O)[C@@H](OCCc5cn(CCCNc6ccc([N+](=O)[O-])c7nonc67)nn5)NC(=O)[C@@H]5[C@@H](O)[C@@H](C)CN5C(=O)[C@H]([C@@H](C)O)NC(=O)[C@H]([C@H](O)[C@@H](O)c5ccc(O)cc5)NC(=O)[C@@H]5C[C@@H](O)CN5C(=O)[C@H]([C@@H](C)O)NC4=O)cc3)cc2)cc1 [Probe 4] | 0.25 (≈ 0.172 µM) | 0.25 (≈ 0.172 µM) | 0.5 (≈ 0.344 µM) | > 64 | 0.25 (≈ 0.172 µM) | > 64 | 0.5 (≈ 0.344 µM) | 0.5 (≈ 0.344 µM) | 0.5 (≈ 0.344 µM) | 0.5 (≈ 0.344 µM) | 0.25 (≈ 0.172 µM) | > 64 | > 64 | 0.25 (≈ 0.172 µM) |  |  |  |  |  | 
7 | CCCCCOc1ccc(-c2ccc(-c3ccc(C(=O)N[C@H]4C[C@@H](O)[C@@H](OCC[N+](C)(C)C)NC(=O)[C@@H]5[C@@H](O)[C@@H](C)CN5C(=O)[C@H]([C@@H](C)O)NC(=O)[C@H]([C@H](O)[C@@H](O)c5ccc(OCc6cn(CCCNc7ccc([N+](=O)[O-])c8nonc78)nn6)cc5)NC(=O)[C@@H]5C[C@@H](O)CN5C(=O)[C@H]([C@@H](C)O)NC4=O)cc3)cc2)cc1 [Probe 6] ({pTerphenylCO(4''-OnC5H11)}-[Orn(4R-OH,5R-OCH2CH2NMe3+)]T[Hyp][X1]T[Pro(3S-OH,4S-Me)]; lactam 1-C) | 0.5 | 0.5 | 0.5 | > 64 | 0.5 | > 64 | 1 | 1 | 1 | 0.5 | 0.5 | > 64 | > 64 | 0.5 |  |  |  |  |  | 
8 | CCCCCOc1ccc(-c2ccc(-c3ccc(C(=O)N[C@H]4C[C@@H](O)[C@@H](OCC[N+](C)(C)C)NC(=O)[C@@H]5[C@@H](O)[C@@H](C)CN5C(=O)[C@H]([C@@H](C)O)NC(=O)[C@H]([C@H](O)[C@@H](O)c5ccc(O)cc5)NC(=O)[C@@H]5C[C@@H](O)CN5C(=O)[C@H]([C@@H](C)O)NC4=O)cc3)cc2)cc1 [RZF, rezafungin, reference compound] ({pTerphenylCO(4''-OnC5H11)}-[Orn(4R-OH,5R-OCH2CH2NMe3+)]T[Hyp][hTyr(3S-OH,4S-OH)]T[Pro(3S-OH,4S-Me)]; lactam 1-C) | 0.063 | 0.031 | 0.031 | 8 | 0.016 | 4 | 0.063 | 0.031 | 0.031 | 0.016 | 0.016 | 8 | > 64 | 0.031 | 91 |  |  |  |  | 
